Source: patent US20190201430A1, “TREATING OCULAR NEOVASCULARIZATION” (Massachusetts Eye and Ear Infirmary, priority 2014, published 2019)
Structures can show the parent of a compound that is named as a salt.

Key:
caveolin-1 [1] = assay: Western blotting of H2O2 induced caveolin-1 phosphorylation in HUVEC; type: cell-based, human; details: for effect of inhibitor pretreatment on the inhibitory effect of AICAR on H2O2 induced caveolin-1 phosphorylation: DPY 8 μM or IODO 0.4 μM 1 h, AICAR 2 mM 2 h, H2O2 2 mM 30 min, FIG. 2
Protocol: (§1) HUVECs (Lonza, Walkersville, Md.) were cultured in Endothelial Growth Medium (EGM, Lonza, Walkersville, Md.). For all experiments, cells were grown at 37° C. in a humidified atmosphere of 5% CO2 and 95% air. Experiments were performed on cells below passage 3 to 6 grown to 80-90% confluence.
(§2) Protein extraction and western blotting were carried out as described previously (Morizane et al. JBC). Densitometric analysis of bands was performed using ImageJ software. Lane-loading differences were normalized by β-actin.
(§3) Cells were transfected with siRNAs using Nucleofection kit (Amaxa Biosysteins, Gaithersburg, Md.), following the manufacturer's protocol. The medium was changed at 6 h after transfection. The down-regulation of each protein was evaluated at 3 days after nucleofection.

c-Abl [2] = assay: Western blotting of H2O2 induced c-Abl phosphorylation in HUVEC; type: cell-based, human; details: DPY 8 μM or IODO 0.4 μM 1 h, AICAR 2 mM 2 h, H2O2 2 mM 30 min; FIG. 2
Protocol: as §1, §2, §3

AMPK [3] = assay: Western blotting of AMPK phosphorylation in HUVEC (Example 1); type: cell-based, human; details: DPY or IODO 1 h, then AICAR 2 mM 2 h, FIG. 2B,F
Protocol: as §1, §2

prdx1/c-Abl complex [4] = assay: Co-immunoprecipitation of prdx1 and c-Abl under H2O2; type: cell-based, human; details: IODO before AICAR and H2O2; FIG. 6D
Protocol: Immunoprecipitation was performed with the Universal Magnetic Co-IP Kit (Active Motif North America, Carlsbad, Calif.), according to the manufacturer's instruction.
as §3

Akt = assay: Western blotting of Akt phosphorylation in HUVECs (VEGF); type: cell-based, human
Protocol: (§4) Human umbilical vein endothelial cells (HUVECs) were cultured in endothelial growth medium (EGM, Lonza, Walkersville, Md.). Normal human dermal fibroblasts (NHDFs) were cultured in fibroblast basal medium (ATCC, Rockville, Md.). Cells were grown at 37° C. in a humidified atmosphere of 95% air, 5% CO2. Experiments were performed on cells below passage 3 to 6 grown to 80%-90% confluence.
(§5) Protein extraction and Western blotting were carried out as described previously (Morizane et al. JBC (26)). We conducted a densitometric analysis of bands using ImageJ software. Lane-loading differences were normalized by β-actin.
(§6) Cells were transfected with siRNAs using a Nucleofection kit (Amaxa Biosystems, Gaithersburg, Md.), following the manufacturer's protocol. The medium was changed 6 h after transfection. The down-regulation of each protein was evaluated 3 days after nucleofection.

AMPK [5] = assay: Western blotting of AMPK phosphorylation in HUVECs (Example 2); type: cell-based, human
Protocol: as §4, §5

PTEN = assay: Western blotting of PTEN phosphorylation in HUVECs; type: cell-based, human; details: IODO 0.1 μM 60 min, then AICAR 2 mM; FIG. 9A,D
Protocol: as §4, §5

caveolin-1 [6] = assay: Western blotting of VEGF induced caveolin-1 phosphorylation in HUVECs; type: cell-based, human
Protocol: as §4, §5, §6

c-Abl [7] = assay: Western blotting of VEGF induced c-Abl phosphorylation in HUVECs; type: cell-based, human; details: IODO 0.4 μM 1 h, AICAR 2 mM 2 h, VEGF 12.5 ng/mL 10 min; FIG. 12D,E
Protocol: as §4, §5, §6

prdx1/c-Abl complex [8] = assay: Co-immunoprecipitation of prdx1 and c-Abl under VEGF; type: cell-based, human; details: AK inhibitor IODO; FIG. 15D,E
Protocol: Immunoprecipitation was performed with the Universal Magnetic Co-IP Kit (Active Motif North America, Carlsbad, Calif.) according to the manufacturer's instruction.
as §6

endothelial cells = details: in the absence of VEGF; cited from earlier work
[9] = IODO 0.4 μM 1 h, AICAR 2 mM 2 h, VEGF 12.5 ng/mL 10 min, FIG. 12D,E

Nc1ncnc2c1c(I)cn2[C@@H]1O[C@H](CO)[C@@H](O)[C@H]1O [IODO, 5-Iodotubericidin]
effect of inhibitor pretreatment on the inhibitory effect of AICAR on H2O2 induced caveolin-1 phosphorylation (caveolin-1 [1]): significantly restored
effect of inhibitor pretreatment on the inhibitory effect of AICAR on H2O2 induced c-Abl phosphorylation (c-Abl [2]): significantly restored
AICAR induced AMPK phosphorylation after inhibitor pretreatment (AMPK [3]): inhibited AICAR induced AMPK phosphorylation dose-dependently
prdx1/c-Abl dissociation with IODO prior to H2O2 and AICAR (prdx1/c-Abl complex [4]): restored the dissociation
effect of IODO pretreatment on AICAR induced Akt dephosphorylation (Akt; IODO 0.1 μM 60 min, then AICAR 2 mM, FIG. 9A,C): suppressed and delayed
effect of IODO on the inhibitory effect of AICAR on VEGF induced Akt phosphorylation (Akt; [9]): significantly abolished
effect of IODO pretreatment on AICAR induced AMPK phosphorylation (AMPK [5]; IODO 0.1 μM 60 min, then AICAR 2 mM, FIG. 9A,B): suppressed and delayed
effect of IODO pretreatment on AICAR induced PTEN phosphorylation (PTEN): suppressed and delayed
effect of IODO on the inhibitory effect of AICAR on VEGF induced caveolin-1 phosphorylation (caveolin-1 [6]; [9]): significantly abolished
effect of IODO on the inhibitory effect of AICAR on VEGF induced c-Abl phosphorylation (c-Abl [7]): significantly abolished
effect of IODO on AICAR inhibition of VEGF induced prdx1/c-Abl dissociation (prdx1/c-Abl complex [8]): abrogated

Cc1ccc(NC(=O)c2ccc(CN3CCN(C)CC3)cc2)cc1Nc1nccc(-c2cccnc2)n1 [imatinib mesylate, Imatinib mesylate]
H2O2 induced phosphorylation of caveolin-1 (caveolin-1 [1]; HUVEC, imatinib mesylate 10 or 20 uM for 24, 48 or 72 h, then H2O2 2 mM 30 min, FIG. 5A,B): inhibited H2O2 induced phosphorylation of both caveolin-1 and c-Abl dose- and time-dependently
VEGF-induced phosphorylation of caveolin-1 (caveolin-1 [6]; imatinib mesylate 10 or 20 μM for 24, 48 or 72 h, then VEGF 12.5 ng/mL 10 min, FIG. 14A,C): inhibited the VEGF-induced phosphorylation of caveolin-1 and c-Abl in a time and dose dependent manner

OCCN(CCO)c1nc(N2CCCCC2)c2nc(N(CCO)CCO)nc(N3CCCCC3)c2n1 [DPY, dipyridamole]
effect of inhibitor pretreatment on the inhibitory effect of AICAR on H2O2 induced caveolin-1 phosphorylation (caveolin-1 [1]): significantly restored
effect of inhibitor pretreatment on the inhibitory effect of AICAR on H2O2 induced c-Abl phosphorylation (c-Abl [2]): significantly restored
AICAR induced AMPK phosphorylation after inhibitor pretreatment (AMPK [3]): inhibited AICAR induced AMPK phosphorylation dose-dependently
AICAR induced AMPK phosphorylation after DPY pretreatment (AMPK [5]; each concentration of DPY 1 h, then AICAR 2 mM 2 h, FIG. 12B): inhibited AMPK phosphorylation

N#Cc1c(O)c2c(-c3ccc(-c4ccccc4O)cc3)csc2[nH]c1=O [A769662, 4-hydroxy-3-[4-(2-hydroxyphenyl)phenyl]-6-oxo-7H-thieno[2,3-b]pyridine-5-carbonitrile]
endothelial proliferation (endothelial cells): suppressed endothelial proliferation
